ChEMBL document CHEMBL4257491, “Discovery of indoleamine 2,3-dioxygenase inhibitors using machine learning based virtual screening” (Medchemcomm, 2018)
Calls of active or inactive are those of the source. The calls are words filed in the database; no cut-off is given here.

Legend:
[1] = Cytotoxicity against human HuH7 cells assessed as survival rate at 1 uM after 24 hrs by MTT assay relative to control; type: cell-based, Huh-7; details: read-out: Survival
[2] = biological target: T1, Indoleamine 2,3-dioxygenase 1 (Homo sapiens, UniProt P14902); assay: Binding affinity to human HuH7 cell derived IDO1 expressed in Escherichia coli BL21 codon plus up to 10 uM by surface plasmon resonance analysis
Target sequence in this assay (P14902 whole entry, looked up): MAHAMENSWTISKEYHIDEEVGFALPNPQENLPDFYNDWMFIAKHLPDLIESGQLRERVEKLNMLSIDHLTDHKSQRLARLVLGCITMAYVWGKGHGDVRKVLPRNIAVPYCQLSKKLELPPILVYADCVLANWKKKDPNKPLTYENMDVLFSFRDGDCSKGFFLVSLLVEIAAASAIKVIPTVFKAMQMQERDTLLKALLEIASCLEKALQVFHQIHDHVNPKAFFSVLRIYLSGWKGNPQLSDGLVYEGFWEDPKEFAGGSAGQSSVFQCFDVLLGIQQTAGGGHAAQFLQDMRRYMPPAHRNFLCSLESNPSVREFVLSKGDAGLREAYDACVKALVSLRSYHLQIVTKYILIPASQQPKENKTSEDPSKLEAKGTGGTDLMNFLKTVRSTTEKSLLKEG

[3] = biological target: T1, Indoleamine 2,3-dioxygenase 1; assay: Inhibition of IDO1 in IFNgamma-stimulated human HuH7 cells at 1 uM using L-tryptophan as substrate measured after 24 hrs relative to control
Target sequence in this assay (P14902 whole entry, looked up): as above

[4] = biological target: T1, Indoleamine 2,3-dioxygenase 1; assay: Inhibition of human HuH7 cell derived IDO1 expressed in Escherichia coli BL21 codon plus using L-tryptophan as substrate measured after 1 hr by fluorescence assay
Target sequence in this assay (P14902 whole entry): as the sequence (P14902 whole entry, looked up) above

[5] = biological target: T1, Indoleamine 2,3-dioxygenase 1; assay: Inhibition of IDO1 in IFNgamma-stimulated human HuH7 cells at 10 uM using L-tryptophan as substrate measured after 24 hrs relative to control
Target sequence in this assay (P14902 whole entry, looked up): as above

[6] = Cytotoxicity against human HuH7 cells assessed as survival rate at 10 uM after 24 hrs by MTT assay relative to control; type: cell-based, Huh-7; details: read-out: Survival

| SMILES | viability at 24 h, 1 µM [1] | Activity [2] | inhibition [3] | IC50 [4] | inhibition [5] | viability at 24 h, 10 µM [6] |
| --- | --- | --- | --- | --- | --- | --- |
| Cc1cccc2c3c(ccc12)C1=C(C(=O)C3=O)C(C)CO1 (configuration not stated) | 94.7% | Active | 54.3% | 1.3 µM |  |  |
| Cc1c(-c2c(C)c(O)c3ccccc3c2O)oc2c1C(=O)C(=O)c1c-2ccc2c1CCCC2(C)C |  | Active |  | 4.1 µM | 21% | 97.1% |
| Cc1coc2c1C(=O)C(=O)c1c-2ccc2c1C=CCC2(C)C | 93% | Active | 66.7% | 4.68 µM |  |  |
